Measured values reported in US12649744B2, “N-(pyridin-2-yl)-6,7,8,9-tetrahydro-5h-5,8-epiminocyclohepta[c]pyridine-10-carboxamide derivatives and similar compounds as GPR65 modulators for the treatment of cancer” (PATHIOS THERAPEUTICS LIMITED, priority 2020, dated 2026).

Molecular target: human recombinant GPR65 (Homo sapiens, UniProt Q8IYL9)
Experiment: Human GPR65 cAMP HTRF antagonist assay
Format: cell-based
Conditions: 1321N1-hrGPR65 cells, assay pH of 7.2, cAMP HTRF; read-out: hGPR65 IC50
Source text: The “Human GPR65 cyclic adenosine monophosphate (cAMP) Homogeneous Time Resolved Fluorescence (HTRF) antagonist assay”, or simply “cAMP assay”, as described below, can be used to measure the potency of GPR65 modulators, which is expressed as the concentration of compound required to reduce the increase in cAMP concentration upon GPR65 activation by 50% (i.e. an IC50).
Human GPR65 Cyclic Adenosine Monophosphate (cAMP) Homogeneous Time Resolved Fluorescence (HTRF) Antagonist Assay Procedure
IC50 data was obtained by the following procedure:
1321N1 human astrocytoma cells stably expressing human recombinant GPR65 (1321N1-hrGPR65 cells, EuroscreenFast) were cultured according to the vendor's instructions.
Compounds were tested for their ability to antagonise GPR65, through measuring the concentration of cytoplasmic cAMP following treatment of the cells at a pH of 7.2 to activate GPR65 signalling and addition of the compound to be tested. The extent to which the expected rise in cAMP concentration upon GPR65 activation was suppressed by the added compound is indicative of its potency. The assay was carried out according to EuroscreenFast assay methodology as follows.
On the day of the assay, test compounds were added to 384-well, low volume, white microtiter plates by acoustic dispensing. KRH buffer (5 mM KCl, 1.25 mM MgSO4, 124 mM NaCl, 25 mM HEPES, 13.3 mM Glucose, 1.25 mM KH2PO4 and 1.45 mM CaCl2) was adjusted to pH 6.5, pH 7.6 and pH 8.4 by adding NaOH. 1321N1-hGPR65 cells were rapidly thawed and diluted in KRH, pH 7.6 prior to centrifugation at 300×g for 5 min and resuspension in assay buffer (KRH, pH 7.6, supplemented with 1 mM 3-isobutyl-1-methylxanthine (IBMX) and 200 μM ethylenediaminetetraacetic acid (EDTA)). Cells were added to assay plates at a density of 2,000 cells per well in a volume of 5 μl. Assay plates were briefly centrifuged at 100×g and then incubated at room temperature for 30 min. Cells were stimulated by the addition of 5 μL KRH, pH 6.5, to achieve an assay pH of 7.2, while control wells received 5 μl KRH, pH 8.4 to achieve an assay pH of 7.9. Assay plates were briefly centrifuged at 100×g and then incubated at room temperature for 30 min.
Accumulation of cAMP was detected by cAMP HTRF kit (Cisbio). d2-labeled cAMP and cryptate-labeled anti-cAMP antibody in Lysis and Detection Buffer (Cisbio) were added to assay plates, and the plates were incubated at room temperature for 1 h. HTRF measurements were performed using a Pherastar FSX instrument. Acceptor and donor emission signals were measured at 665 nm and 620 nm, respectively, and HTRF ratios were calculated as signal665 nm/signal620nm×10^4. Data were normalised to high and low control values and fitted with 4-parameter logistic regression to determine hGPR65 IC50 values for the test compounds, which are shown in Table 1.

Chain of human recombinant GPR65 (Q8IYL9 whole entry): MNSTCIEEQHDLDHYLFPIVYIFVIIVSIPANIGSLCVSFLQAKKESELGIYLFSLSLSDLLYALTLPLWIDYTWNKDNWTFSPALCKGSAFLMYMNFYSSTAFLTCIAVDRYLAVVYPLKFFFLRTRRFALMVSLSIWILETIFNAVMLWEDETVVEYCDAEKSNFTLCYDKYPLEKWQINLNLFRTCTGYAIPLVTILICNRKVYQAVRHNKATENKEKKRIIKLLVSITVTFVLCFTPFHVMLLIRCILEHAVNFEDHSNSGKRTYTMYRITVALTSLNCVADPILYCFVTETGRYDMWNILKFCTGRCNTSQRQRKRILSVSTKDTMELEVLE

Compound | IC50 [nM]
O=C(Nc1cnc(-c2ccccc2)s1)N1[C@H]2CC[C@@H]1c1ccnc(F)c1C2 [Compound 29, (5R,8S)-1-Fluoro-N-(2-phenylthiazol-5-yl)-6,7,8,9-tetrahydro-5H-5,8-epiminocyclohepta[c]pyridine-10-carboxamide] | < 500
O=C(Nc1nc(Cl)c(Cl)s1)N1[C@H]2CC[C@@H]1c1ccnc(F)c1C2 [Compound 30, (5R,8S)-N-(4,5-Dichlorothiazol-2-yl)-1-fluoro-6,7,8,9-tetrahydro-5H-5,8-epiminocyclohepta[c]pyridine-10-carboxamide] | < 500
O=C(Nc1nnc(C2CC2)s1)N1[C@H]2CC[C@@H]1c1ccnc(F)c1C2 [Compound 31, (5R,8S)-N-(5-Cyclopropyl-1,3,4-thiadiazol-2-yl)-1-fluoro-6,7,8,9-tetrahydro-5H-5,8-epiminocyclohepta[c]pyridine-10-carboxamide] | 500 to 5000
O=C(Nc1nnc(C2CCOCC2)s1)N1[C@H]2CC[C@@H]1c1ccnc(F)c1C2 [Compound 32, (5R,8S)-1-Fluoro-N-(5-(tetrahydro-2H-pyran-4-yl)-1,3,4-thiadiazol-2-yl)-6,7,8,9-tetrahydro-5H-5,8-epiminocyclohepta[c]pyridine-10-carboxamide] | > 5000
O=C(Nc1nnc(-c2ccccc2)s1)N1[C@H]2CC[C@@H]1c1ccnc(F)c1C2 [Compound 33, (5R,8S)-1-Fluoro-N-(5-phenyl-1,3,4-thiadiazol-2-yl)-6,7,8,9-tetrahydro-5H-5,8-epiminocyclohepta[c]pyridine-10-carboxamide] | < 500
Cn1nc(NC(=O)N2[C@H]3CC[C@@H]2c2ccnc(F)c2C3)c2ccccc21 [Compound 34, (5R,8S)-1-Fluoro-N-(1-methyl-1H-indazol-3-yl)-6,7,8,9-tetrahydro-5H-5,8-epiminocyclohepta[c]pyridine-10-carboxamide] | > 5000
O=C(Nc1ccc2nonc2c1)N1[C@H]2CC[C@@H]1c1ccnc(F)c1C2 [Compound 35, (5R,8S)-N-(Benzo[c][1,2,5]oxadiazol-5-yl)-1-fluoro-6,7,8,9-tetrahydro-5H-5,8-epiminocyclohepta[c]pyridine-10-carboxamide] | 500 to 5000
O=C(Nc1cc(C(F)(F)F)on1)N1[C@H]2CC[C@@H]1c1ccnc(F)c1C2 [Compound 36, (5R,8S)-1-Fluoro-N-(5-(trifluoromethyl)isoxazol-3-yl)-6,7,8,9-tetrahydro-5H-5,8-epiminocyclohepta[c]pyridine-10-carboxamide] | < 500
N#Cc1ccc(NC(=O)N2[C@H]3CC[C@@H]2c2ccnc(F)c2C3)nc1C(F)(F)F [Compound 37, (5R,8S)-N-(5-Cyano-6-(trifluoromethyl)pyridin-2-yl)-1-fluoro-6,7,8,9-tetrahydro-5H-5,8-epiminocyclohepta[c]pyridine-10-carboxamide] | 500 to 5000
N#Cc1cnc(NC(=O)N2[C@H]3CC[C@@H]2c2ccnc(F)c2C3)c(C(F)(F)F)c1 [Compound 38, (5R,8S)-N-(5-Cyano-3-(trifluoromethyl)pyridin-2-yl)-1-fluoro-6,7,8,9-tetrahydro-5H-5,8-epiminocyclohepta[c]pyridine-10-carboxamide] | < 500
O=C(Nc1ccc(OC(F)F)cn1)N1[C@H]2CC[C@@H]1c1ccnc(F)c1C2 [Compound 39, (5R,8S)-N-(5-(Difluoromethoxy)pyridin-2-yl)-1-fluoro-6,7,8,9-tetrahydro-5H-5,8-epiminocyclohepta[c]pyridine-10-carboxamide] | 500 to 5000
O=C(Nc1ccc(OC(F)(F)F)cn1)N1[C@H]2CC[C@@H]1c1ccnc(F)c1C2 [Compound 40, (5R,8S)-1-Fluoro-N-(5-(trifluoromethoxy)pyridin-2-yl)-6,7,8,9-tetrahydro-5H-5,8-epiminocyclohepta[c]pyridine-10-carboxamide] | < 500
N#Cc1ccc(NC(=O)N2[C@H]3CC[C@@H]2c2ccnc(F)c2C3)nc1 [Compound 41, (5R,8S)-N-(5-Cyanopyridin-2-yl)-1-fluoro-6,7,8,9-tetrahydro-5H-5,8-epiminocyclohepta[c]pyridine-10-carboxamide] | 500 to 5000
O=C(Nc1nc(-c2ccccc2)no1)N1[C@H]2CC[C@@H]1c1ccnc(F)c1C2 [Compound 42, (5R,8S)-1-Fluoro-N-(3-phenyl-1,2,4-oxadiazol-5-yl)-6,7,8,9-tetrahydro-5H-5,8-epiminocyclohepta[c]pyridine-10-carboxamide] | 500 to 5000
Cc1nnc(NC(=O)N2[C@H]3CC[C@@H]2c2ccnc(F)c2C3)s1 [Compound 43, (5R,8S)-1-Fluoro-N-(5-methyl-1,3,4-thiadiazol-2-yl)-6,7,8,9-tetrahydro-5H-5,8-epiminocyclohepta[c]pyridine-10-carboxamide] | > 5000
O=C(Nc1ccc2nc(C(F)(F)F)ccc2c1)N1[C@H]2CC[C@@H]1c1ccnc(F)c1C2 [Compound 44, (5R,8S)-1-Fluoro-N-(2-(trifluoromethyl)quinolin-6-yl)-6,7,8,9-tetrahydro-5H-5,8-epiminocyclohepta[c]pyridine-10-carboxamide] | < 500
O=C(Nc1nnc(-c2ccccc2)o1)N1[C@H]2CC[C@@H]1c1ccnc(F)c1C2 [Compound 45, (5R,8S)-1-Fluoro-N-(5-phenyl-1,3,4-oxadiazol-2-yl)-6,7,8,9-tetrahydro-5H-5,8-epiminocyclohepta[c]pyridine-10-carboxamide] | 500 to 5000
N#Cc1cnc(NC(=O)N2[C@H]3CC[C@@H]2c2ccnc(F)c2C3)cc1Cl [Compound 46, (5R,8S)-N-(4-Chloro-5-cyanopyridin-2-yl)-1-fluoro-6,7,8,9-tetrahydro-5H-5,8-epiminocyclohepta[c]pyridine-10-carboxamide] | < 500
N#Cc1ccc(NC(=O)N2[C@H]3CC[C@@H]2c2ccnc(F)c2C3)nc1Cl [Compound 47, (5R,8S)-N-(6-Chloro-5-cyanopyridin-2-yl)-1-fluoro-6,7,8,9-tetrahydro-5H-5,8-epiminocyclohepta[c]pyridine-10-carboxamide] | 500 to 5000
Cn1nc(NC(=O)N2[C@H]3CC[C@@H]2c2ccnc(F)c2C3)cc1C(F)(F)F [Compound 48, (5R,8S)-1-fluoro-N-(1-methyl-5-(trifluoromethyl)-1H-pyrazol-3-yl)-6,7,8,9-tetrahydro-5H-5,8-epiminocyclohepta[c]pyridine-10-carboxamide] | > 5000
O=C(Nc1cc(C(F)(F)F)on1)N1[C@H]2CC[C@@H]1c1c[nH]c(=O)cc1C2 [Compound 49, (6S,9R)-3-oxo-N-(5-(trifluoromethyl)isoxazol-3-yl)-3,5,6,7,8,9-hexahydro-2H-6,9-epiminocyclohepta[c]pyridine-10-carboxamide] | < 500
O=C(Nc1cc(C(F)(F)F)no1)N1[C@H]2CC[C@@H]1c1ccnc(F)c1C2 [Compound 50, (5R,8S)-1-fluoro-N-(3-(trifluoromethyl)isoxazol-5-yl)-6,7,8,9-tetrahydro-5H-5,8-epiminocyclohepta[c]pyridine-10-carboxamide] | < 500
COC(=O)c1cc(NC(=O)N2[C@H]3CC[C@@H]2c2ccnc(F)c2C3)no1 [Compound 51, methyl-3-((5R,8S)-1-fluoro-6,7,8,9-tetrahydro-5H-5,8-epiminocyclohepta[c]pyridine-10-carboxamido)isoxazole-5-carboxylate] | 500 to 5000
N#Cc1cc(NC(=O)N2[C@H]3CC[C@@H]2c2ccnc(F)c2C3)no1 [Compound 52, (5R,8S)-N-(5-cyanoisoxazol-3-yl)-1-fluoro-6,7,8,9-tetrahydro-5H-5,8-epiminocyclohepta[c]pyridine-10-carboxamide] | < 500
